Results on six compounds are retold here after patent US20240358671A1, “COMPOSITIONS AND METHODS TO TREAT SKIN DISORDERS” (THE TRUSTEES OF INDIANA UNIVERSITY, priority 2021, published 2024).

The test system of assay [1] is CerS3. Briefly: CerS3 expression in human keratinocytes treated with PPARδ agonist or antagonist, qPCR. The assay is classed as cell-based. The settings on record: 1 μmol/ml. The text has this: FIGS. 11A-11O illustrate additional experimental results. FIG. 11A: Vector map of PPARδ promoter luciferase reporter. FIGS. 11B-11C: PPARδ drives CerS3 expression. CerS3 expression in human keratinocytes (HK) treated with PPARδ agonist (GW501516, 1 μmol/ml) or antagonist (GSK0660, 1 μmol/ml) as measured by qPCR. Data presented as mean±SEM (n=5). FIGS. 11D-11F: Upregulation of DNA methyl transferases in S-1-P treated HK. Data presented as mean±SEM (n=8). FIGS. 11G-11J: Induction of histone deacetylases in S-1P treated HK. Data presented as mean±SEM (n=8). FIGS. 11K-11N) Other histone deacetylases in S-1P treated HK. […] Data presented as mean±SEM, (n=8). FIG. 11O: miR-106b expression in HK treated with S-1-P (5 μmol/ml). Data presented as mean±SEM (n=8).
A general note: Real-time PCR tracks product formation cycle by cycle.

Assay [2] deals with S. aureus. The settings on record: cited from earlier work.
The subject of assay [3] is Streptococcus pyogenes. As to conditions: cited from earlier work.
Assay [4] concerns Staphylococcus epidermidis biofilm. As to conditions: cited from earlier work.
The test system of assay [5] is Propionibacterium acnes. As to conditions: cited from earlier work.
Assay [6] deals with P. aeruginosa. As to conditions: cited from earlier work.
Assay [7] deals with Staphylococcus epidermidis. The settings on record: cited from earlier work.
The test system of assay [8] is Micrococcus luteus. The settings on record: cited from earlier work.
For assay [9], the system named is PPARδ. The experiment in a line: PPARδ trans-activity assay. The assay is classed as cell-based. As to conditions: human keratinocytes; 5 μmol long chain ceramides, 48 h. How it is done: Human keratinocytes cells were treated with 5 μmol of long chain ceramides, C18:0 and C24:0 (Avanti Polar Lipids Inc., Alabama) using Lipofectamine LTX (Thermo Fisher Scientific). Cells were collected 48 h post transfection and nuclear protein was extracted using Nuclear Extraction Kit (RayBiotech) as per manufacturer's protocol. PPARδ trans-activity was measured using PPAR delta Transcription Factor Assay Kit (abcam) as per manufacturer's instructions.

Assay [10] relates to PPARδ promoter. Briefly: PPARδ promoter assay. The assay is classed as cell-based. As to conditions: human keratinocytes; PPARδ promoter reporter; 5 μmol long chain ceramides, 48 h. As to the method:
PPARδ promoter assay was done as described previously. mNP-Luc (PPARdelta promoter) was a gift (Addgene plasmid #16532; http://n2t.net/addgene:16532; RRID:Addgene_16532. Human keratinocytes cells were co-transfected with the PPARδ promoter reporter construct and treated with 5 μmol of long chain ceramides, C:18 and C:24 (Avanti Polar Lipids Inc., Alabama) using Lipofectamine™ LTX Reagent with PLUS™ Reagent (Thermo Fisher Scientific). Media were collected 48 h post transfection and the secreted GLuc and SEAP activities were measured with the Secrete-Pair Dual Luminescence Assay Kit (GeneCopoeia) according to the manufacturer's protocol using the Berthold Luminometer (Berthold Technologies). Normalized promoter activity has been presented as the ratio of GLuc to SEAP activities.

Assay [11] has as its system PPARδ. The experiment in a line: PPARδ expression in human keratinocyte biofilm infection. Type of assay: cell-based. As to conditions: in the presence of ceramidastin. As to the method:
(§1) Bacterial biofilms were co-cultured with human keratinocytes cells following the method adapted from Anderson. The confluent cultures of human keratinocytes cells were inoculated with bacterial cultures of PAwt or PAΔcer (10^5 CFU/ml) in antibiotic free culture media. The plates were incubated for 1 h at 37° C. and 5% CO2. Post 1 h, fresh DMEM (without antibiotics) supplemented with 0.4% arginine was added to the plate. Post 7-8 hours, cells were harvested. The co-culture media was filtered using 0.2 μm filters and used for ceramidastin experiment. Human keratinocytes were treated with conditioned media (25% v/v) of cells co-cultured with PAwt biofilm containing ceramidastin (10 μg/ml) for 24 h.
Western blot was performed using antibodies against anti-PPARδ (Thermo Scientific, 1:500), anti-CerS3 (Origene, 1:500). β-actin (Sigma Aldrich, 1:5000) was used as housekeeping.

Assay [12] addresses T1, PA bcdase (Pseudomonas aeruginosa, UniProt Q9I596).
T1 construct: cutaneous lipids exposed to biofilm-infected keratinocyte conditioned media (CM); endogenous in cells; host or cells: Wild-type Pseudomonas aeruginosa (PAwt) biofilm co-cultured with human keratinocytes; the conditioned medium holds the enzyme
The experiment in a line: Ex vivo extracted skin lipids treated with biofilm-conditioned media, ceramides by LC-MS/MS. The assay is classed as biochemical. The settings on record: conditioned media contained ceramidastin. As to the method: FIGS. 8A-8N illustrate ceramide depletion. FIGS. 8A-8L Ceramide depletion, as measured by LC-MS/MS, in cutaneous lipids exposed to biofilm-infected keratinocyte conditioned media (CM). As indicated, to test the significance of PA bcdase, the CM contained ceramidastin (CST). Lipids were extracted and analyzed using an untargeted approach as described in Materials and Methods. The resultant data were analyzed using R 3.3. Wilcoxon Rank-Sum test was used for all group analyses and Kruskal-Wallis followed by Benjamini Hochberg correction was performed for multiple comparisons with significance at p<0.05. Skin ceramides have been denoted using the standard nomenclature following the format of fatty acyl type, sphingoid backbone type, and sphingoid backbone length-fatty acyl length. NS=Cer 2 (with non-hydroxy fatty acid, sphingoid backbone); NP=Cer 3 (non-hydroxy fatty acid, phytopshingoid backbone); NH=Cer 8 (non-hydroxy fatty acid, 6-hydroxy sphingoid backbone); NDS=Cer 10 (non-hydroxy fatty acid, dihydroxy sphingoid backbone); AS=Cer 5 (α-hydroxy fatty acid, sphingoid backbone); AP=Cer 6 (α-hydroxy fatty acid, phytosphingoid backbone). The Y-axis values are in mol %. (M) Digital wound images and planimetry shown. […]
Untargeted lipidomics was undertaken as previously published. […] Finally, lipids were analyzed via the use of MS/MSALL approach as previously disclosed. […]

Assay [13] concerns ABCA12. The experiment in a line: ABCA12 in human keratinocytes after PAwt biofilm infection. The assay is classed as cell-based. How it is done:
as §1
(§2) OCT embedded wound tissue blocks were sectioned using a cryostat. […] To enable fluorescence detection, sections were incubated with appropriate Alexa Fluor® 488 (green, Molecular probes), Alexa Fluor® […] (red, Molecular probes) conjugated secondary antibodies. […] Mosaic images were collected using collected using a Zeiss Axiovert 200 M, inverted fluorescence microscopy or confocal microscopy (LSM880). Image analysis was performed using Zen (Zeiss) software to quantitate fluorescence intensity (fluorescent pixels).

The test system of assay [14] is Human keratinocytes (HK). The experiment in a line: Human keratinocytes-Pseudomonas biofilm co-culture conditioned media: keratinocyte ceramide by anti-ceramide immunostaining. Type of assay: cell-based. As to conditions: HK treated with conditioned media (25% v/v) of cells co-cultured with PA biofilm containing ceramidastin 10 μg/ml, 24 h.
Source text: FIGS. 7A-7U relate to ceramide depletion and ceramidastin rescue. FIGS. 7A-7S: Ceramide depletion, as measured by LC-MS/MS, in cutaneous lipids. Following exposure to bacteria as applicable, lipids were extracted and analyzed via a targeted approach. Data thus obtained were subjected to analysis by ANOVA using R3.5.3 to specifically identify those lipids with significant differences between the three groups. Those with significance as tested by ANOVA were subjected to post hoc analysis using Tukey-HSD with a FDR cutoff of 0.05. Lipids with group differences that passed these thresholds were illustrated as box plots. Skin ceramides have been denoted using the standard nomenclature following the format of fatty acyl type, sphingoid backbone type, and sphingoid backbone length-fatty acyl length. […]
as §2

Entries after “also recorded” stand apart in the source; their conditions may differ.

T1 sequence (Q9I596 25-670): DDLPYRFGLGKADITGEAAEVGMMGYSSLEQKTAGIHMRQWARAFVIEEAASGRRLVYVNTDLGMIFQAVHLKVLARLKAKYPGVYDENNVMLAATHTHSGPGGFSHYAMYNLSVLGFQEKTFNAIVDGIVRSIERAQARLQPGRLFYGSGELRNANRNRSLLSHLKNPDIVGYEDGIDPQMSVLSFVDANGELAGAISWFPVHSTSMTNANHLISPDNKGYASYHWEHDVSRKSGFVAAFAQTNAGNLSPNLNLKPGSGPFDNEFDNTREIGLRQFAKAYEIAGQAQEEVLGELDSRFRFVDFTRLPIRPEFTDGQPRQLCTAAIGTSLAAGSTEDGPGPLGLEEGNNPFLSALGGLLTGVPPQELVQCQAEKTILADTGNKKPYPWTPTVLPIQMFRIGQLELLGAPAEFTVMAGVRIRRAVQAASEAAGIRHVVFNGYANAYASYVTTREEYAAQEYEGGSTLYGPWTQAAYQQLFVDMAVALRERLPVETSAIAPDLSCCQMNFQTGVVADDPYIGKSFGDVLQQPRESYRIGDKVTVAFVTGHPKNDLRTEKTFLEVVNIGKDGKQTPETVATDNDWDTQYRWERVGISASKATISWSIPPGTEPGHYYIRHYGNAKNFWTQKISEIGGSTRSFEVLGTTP

As for `Cc1cc(SCc2sc(-c3ccc(C(F)(F)F)cc3)nc2C)ccc1OCC(=O)O` [GW501516], the CerS3 expression entry in [1] is on record as “increased expression of CerS3”.

For the compound `CCCCCCCCCCCCC/C=C/[C@@H](O)[C@@H](N)CO` [Sphingosine], the “killing of S. aureus” value in [2] is reported as “effectively killed”. Moreover, the “killing of Streptococcus pyogenes” value in assay [3] is listed as “effectively killed”. The “Staphylococcus epidermidis biofilm on orthopedic implant materials” value in assay [4] was “prevented and eliminated”. The “killing of Propionibacterium acnes” value in assay [5] was “effectively killed”. The “killing of P. aeruginosa” value in assay [6] is recorded as “moderately killed”. Besides, the “killing of Staphylococcus epidermidis” value in assay [7] is reported as “effectively killed”. Also, the “killing of Micrococcus luteus” value in assay [8] is “effectively killed”.

`COC(=O)c1sccc1S(=O)(=O)Nc1ccc(Nc2ccccc2)cc1OC` [GSK0660]: the CerS3 expression entry in [1] is “blunted the expression of CerS3”.

For the compound `CCCCCCCCCCCCC/C=C/[C@@H](O)[C@H](CO)NC(=O)CCCCCCCCCCCCCCCCC` [C18], the PPARδ transactivation entry in [9] is listed as “induced”. Further, in assay [10], the PPARδ transcription result was “induced”.

With `CCCCCCC(O)C1C2=C(CC(C(O)C(O)C/C=C/CO)CC3=C(C(=O)OC3=O)C1O)C(=O)OC2=O` (centres unmarked) [Ceramidastin], the “PPARδ expression blunted by biofilm infection” value in assay [11] was “rescued”. In assay [12], the “ceramides in extracted skin lipids treated with biofilm-conditioned media” value is “rescue of ceramides”. Besides, the “loss of ABCA12 in response to biofilm infection by PAwt” value in assay [13] is on record as “prevented”. In assay [14], the “keratinocyte ceramide after PAwt biofilm infection” value is “rescued keratinocyte ceramide against loss; also recorded: rescued depletion of keratinocyte ceramide”.

For the compound `CCCCCCCCCCCCC/C=C/[C@@H](O)[C@H](CO)NC(=O)CCCCCCCCCCCCCCCCCCCCCCC` [C24], in [9], the PPARδ transactivation entry is given as “induced”. The PPARδ transcription result in assay [10] is given as “induced”.
